How the values were obtained:
KRas G12C mutant = experiment: Ras GTP Binding Domain Inhibition Assay, KRas G12C mutant; settings: at 20 μM; for KRas G12C mutant + SOS: % inh.: with SOS; for KRas G12C mutant: % inh.: without SOS
Method in brief: (§1)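 Assay steps: protein on Ni-coated plate overnight at 4° C, compound for 3 h at room temperature (20 μM single point or serial dilution for IC50), then 100 nM dye-labelled GTP for 45 min. Washed wells read by fluorescence; Sos was added in the last hour in some runs.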

IL-6 = experiment: Mouse IL6 Quantification Assay (LPS-stimulated RAW 264.7); assay type: cell-based; parameters: dose or concentration left out as unconfirmed; settings: RAW264.7, ELISA, read-out: IL-6: % inh.
TNFα = experiment: Mouse TNF Alpha Quantification Assay (LPS-stimulated RAW 264.7); assay type: cell-based; parameters: dose or concentration left out as unconfirmed; settings: RAW264.7, ELISA, read-out: TNFα: % inh.
KRas G12D mutant = experiment: Ras GTP Binding Domain Inhibition Assay, KRas G12D mutant; settings: at 20 μM; for KRas G12D mutant + SOS: % inh.: with SOS; for KRas G12D mutant: % inh.: without SOS
Method in brief: as §1

Rho-A = experiment: Ras GTP Binding Domain Inhibition Assay, Rho-A; settings: at 20 μM; without SOS
Method in brief: as §1

KRas wild type = experiment: Ras GTP Binding Domain Inhibition Assay, KRas wild type; settings: at 20 μM; for KRas wild type + SOS: % inh.: with SOS; for KRas wild type: % inh.: without SOS
Method in brief: as §1

Smad2/3 phosphorylation = experiment: Phospho-Smad2/3 Inhibition Assay in PANC-1; assay type: cell-based; settings: Homo sapiens; 10 μM compound, 3 h; TGF-b1 stimulated PANC-1; western blot; read-out: % inh of Smad2/3 phosphorylation in PANC-1
Description: Cell lines: Human tumor-derived pancreatic cancer cell line Panc-1 and mouse muscle myoblast C2C12 were purchased from American Type Culture Collection and grown in complete DMEM-High Glucose, supplemented with penicillin (100 U/mL), streptomycin (100 μg/mL), and 10% heat-inactivated FBS at 37° C. in a humidified incubator with 5% CO2.
Method: Cells were plated at 350000 cells/well density in a 12-well plate, allowed 3 hours to adhere to the plate, then starved in the appropriate medium in the presence of 0.5% FBS overnight. The small molecules to be tested were added to the cells in the final concentration of 10 μM in the presence of 0.3% DMSO for 3 hours incubation at 37° C. For IC50 value determination, serial dilutions of compounds were added to cells under the same conditions. Next, Panc-1 cells were stimulated with 10 ng/ml TGF-b1 for 1 hour, and C2C12 cells were stimulated with 10 ng/ml TGF-b1 for 20 minutes (recombinant human TGF-b1, R&D Systems). After stimulation cells were lysed with lysis buffer containing 1% Triton X-100, EDTA, and Halt™ Protease & Phosphatase Inhibitor Cocktail (Thermo Scientific). Protein concentration was assessed by BCA protein assay (Thermo Scientific). Phosphorylation level of Smad2/Smad3 was determined by western blot.
Western blot protocol: Equal amounts of protein (15-50 μg) were separated by SDS-PAGE and transferred to nitrocellulose membranes (Invitrogen by Thermo Fisher Scientific). The membrane was stained with Ponceau S Stain (Boston BioProducts) to verify uniform protein loading. Membranes were blocked with 10% milk and phosphorylation levels of Smad2/Smad3 were assessed by incubating overnight at 4° C. with the following antibodies: Phospho-Smad2 (Ser465/467) and Phosph-Smad3 (Ser423/425), both from Cell Signaling Technology. Then the membranes were incubated with HRP-conjugated secondary antibody (Jackson Immunoresearch, West Grove, PA). Bands were incubated in Amersham ECL Prime Western Blotting Detection Reagent (GE Healthcare) and visualized using the ChemiDoc MP imaging system (Bio-Rad).

## COCCCCn1c(-c2nccn2C)nc2sc(-c3ccn(C(C)C)n3)c(C)c2c1=O [Compound 33, 6-(1-Isopropyl-1H-pyrazol-3-yl)-3-(4-methoxybutyl)-5-methyl-2-(1-methyl-1H-imidazol-2-yl)thieno[2,3-d]pyrimidin-4(3H)-one]
KRas G12C mutant
  KRas G12C mutant + SOS: % inh.: A (A = 1-25% inhibition)
  KRas G12C mutant: % inh.: 0 (0 = 0% inhibition)
IL-6
  inhibition: 46 to 75%
TNFα
  inhibition: 0%
KRas G12D mutant; Table 7
  KRas G12D mutant + SOS: % inh.: 0 (0 = 0% inhibition)
  KRas G12D mutant: % inh.: 0 (0 = 0% inhibition)
KRas G12D mutant; Table 8
  KRas G12D mutant + SOS: % inh.: 0 (0 = 0% inhibition)
  KRas G12D mutant: % inh.: 0 (0 = 0% inhibition)
Rho-A
  Rho-A: % inh.: 0 (0 = 0% inhibition)
KRas wild type
  KRas wild type + SOS: % inh.: A (A = 1-25% inhibition)
  KRas wild type: % inh.: 0 (0 = 0% inhibition)
Smad2/3 phosphorylation
  inhibition at 10 µM: 0%

## COCCCOc1nc(-c2nccn2C)nc2sc(-c3ccn(C(C)C)n3)c(-c3ccccc3)c12 [Compound 37, 6-(1-Isopropyl-1H-pyrazol-3-yl)-4-(3-methoxypropoxy)-2-(1-methyl-1H-imidazol-2-yl)-5-phenylthieno[2,3-d]pyrimidine]
KRas G12C mutant
  KRas G12C mutant + SOS: % inh.: 0 (0 = 0% inhibition)
  KRas G12C mutant: % inh.: 0 (0 = 0% inhibition)
IL-6
  inhibition: 76 to 100%
TNFα
  inhibition: 0%
KRas G12D mutant; Table 7
  KRas G12D mutant + SOS: % inh.: 0 (0 = 0% inhibition)
  KRas G12D mutant: % inh.: 0 (0 = 0% inhibition)
KRas G12D mutant; Table 8
  KRas G12D mutant + SOS: % inh.: 0 (0 = 0% inhibition)
  KRas G12D mutant: % inh.: 0 (0 = 0% inhibition)
Rho-A
  Rho-A: % inh.: 0 (0 = 0% inhibition)
KRas wild type
  KRas wild type + SOS: % inh.: A (A = 1-25% inhibition)
  KRas wild type: % inh.: 0 (0 = 0% inhibition)
Smad2/3 phosphorylation
  inhibition at 10 µM: 0%

## COCCn1ccc(-c2sc3nc(-c4nccn4C)nc(NC[C@H]4CC[C@H]4COC)c3c2C)n1 (racemic) [Compound 38, rac-6-(1-(2-Methoxyethyl)-1H-pyrazol-3-yl)-N-(((1S,2R)-2-(methoxymethyl)cyclobutyl)methyl)-5-methyl-2-(1-methyl-1H-imidazol-2-yl)thieno[2,3-d]pyrimidin-4-amine]
KRas G12C mutant
  KRas G12C mutant + SOS: % inh.: D (D = 76-100% inhibition)
  KRas G12C mutant: % inh.: C (C = 46-75% inhibition)
IL-6
  inhibition: 76 to 100%
TNFα
  inhibition: 76 to 100%
KRas G12D mutant; Table 7
  KRas G12D mutant + SOS: % inh.: D (D = 76-100% inhibition)
  KRas G12D mutant: % inh.: B (B = 26-45% inhibition)
KRas G12D mutant; Table 8
  KRas G12D mutant + SOS: % inh.: D (D = 76-100% inhibition)
  KRas G12D mutant: % inh.: B (B = 26-45% inhibition)
Rho-A
  Rho-A: % inh.: B (B = 26-45% inhibition)
KRas wild type
  KRas wild type + SOS: % inh.: D (D = 76-100% inhibition)
  KRas wild type: % inh.: C (C = 46-75% inhibition)
Smad2/3 phosphorylation
  inhibition at 10 µM: 46 to 75%

## COCCOc1nc(-c2nccn2C)nc2sc(-c3ccn(C(C)C)n3)c(C)c12 [Compound 30, 6-(1-Isopropyl-1H-pyrazol-3-yl)-4-(2-methoxyethoxy)-5-methyl-2-(1-methyl-1H-imidazol-2-yl)thieno[2,3-d]pyrimidine]
KRas G12C mutant
  KRas G12C mutant + SOS: % inh.: 0 (0 = 0% inhibition)
  KRas G12C mutant: % inh.: A (A = 1-25% inhibition)
IL-6
  inhibition: 0%
TNFα
  inhibition: 0%
KRas G12D mutant; Table 7
  KRas G12D mutant + SOS: % inh.: 0 (0 = 0% inhibition)
  KRas G12D mutant: % inh.: 0 (0 = 0% inhibition)
KRas G12D mutant; Table 8
  KRas G12D mutant + SOS: % inh.: 0 (0 = 0% inhibition)
  KRas G12D mutant: % inh.: 0 (0 = 0% inhibition)
Rho-A
  Rho-A: % inh.: 0 (0 = 0% inhibition)
KRas wild type
  KRas wild type + SOS: % inh.: 0 (0 = 0% inhibition)
  KRas wild type: % inh.: A (A = 1-25% inhibition)
Smad2/3 phosphorylation
  inhibition at 10 µM: 0%

## Cc1c(-c2ccn(C(C)C)n2)sc2nc(-c3nccn3C)nc(NCCN3CCS(=O)(=O)CC3)c12 [Compound 23, 4-(2-((6-(1-Isopropyl-1H-pyrazol-3-yl)-5-methyl-2-(1-methyl-1H-imidazol-2-yl)thieno[2,3-d]pyrimidin-4-yl)amino)ethyl)thiomorpholine 1,1-dioxide]
KRas G12C mutant
  KRas G12C mutant + SOS: % inh.: D (D = 76-100% inhibition)
  KRas G12C mutant: % inh.: C (C = 46-75% inhibition)
IL-6
  inhibition: 46 to 75%
TNFα
  inhibition: 0%
KRas G12D mutant; Table 7
  KRas G12D mutant + SOS: % inh.: D (D = 76-100% inhibition)
  KRas G12D mutant: % inh.: D (D = 76-100% inhibition)
KRas G12D mutant; Table 8
  KRas G12D mutant + SOS: % inh.: D (D = 76-100% inhibition)
  KRas G12D mutant: % inh.: D (D = 76-100% inhibition)
Rho-A
  Rho-A: % inh.: C (C = 46-75% inhibition)
KRas wild type
  KRas wild type + SOS: % inh.: D (D = 76-100% inhibition)
  KRas wild type: % inh.: D (D = 76-100% inhibition)
Smad2/3 phosphorylation
  inhibition at 10 µM: 0%

Reference: patent US20240309015A1, “Methods for the Treatment of Fibrotic Disease” (SHY Therapeutics, LLC, priority 2021, published 2024)
